From US6383543B1, “Process for the extraction of an organic salt from plants, the salt, and other similar salts” (RAD Natural Technologies Ltd., priority 1998, dated 2002)

What was measured:
[1] = Antioxidant effect in oil in water emulsions containing soybean oil, TBA test at 50° C.; settings: oil in water emulsion
Procedure: (a) Oil in water emulsions were prepared from soybean oil (10%), Tween 80 (7%), Span 80 (3%), water (80%) and antioxidant (0.1 or 0.02%).

[2] = Antioxidant effect in bulk oil (soybean oil) at 60° C.
From the text: A concentrate was first prepared containing 40% lecithin, 40% oil (e.g. soybean oil), 20% propylene glycol and 4% based on the foregoing mixture of 65% (≡2.6% pure) sodium rosmarinate.

[3] = Antioxidant effect in water in oil emulsions from soybean oil, Rancimat (AOM) test at 100° C.; settings: water in oil emulsion
[4] = Comparative efficiency: time the antioxidant continues to inhibit oxidation of linoleic acid; format: biochemical; settings: time until antioxidant is consumed and rate of change of absorption at 234 nm reverts to control
Procedure: The method is based on the rate of oxidation of linoleic acid (LA) to its conjugated diene hydroperoxide (Pryor et al., in J. Org. […] A 1% LA aq. emulsion was prepared with 1% Tween 20 and 0.05M sodium phosphate buffer (pH 7.4). A control sample contained 0.025 ml of the LA emulsion+2.87 ml. of the buffer+0.1 ml 0.05M ABAP; a test sample contained 0.05 ml of the LA emulsion+2.7-2.8 ml of the buffer+0.1 ml 0.05M ABAP+0.05-0.1 ml of the sample under test. Absorption at 234 nm is followed for 5 minutes to establish the uninhibited rate of autoxidation. […] The test antioxidant was added and the inhibited reaction was followed until the antioxidant was consumed and the rate of the absorption change at 234 nm reverted to that observed at the outset.

[5] = yes/no; cited from earlier work
Solubility = format: physicochemical; settings: for Solubility: lipid or water; for solubility in acetone: b32: essentially 100% acetone
[6] = Antioxidant effect in emulsions containing β-carotene; settings: over a 100 hour time period; 0.1%
Procedure: A model emulsion was then prepared by adding double-distilled water (25 ml) to the residue and diluting to 500 ml with phosphate buffer (pH 7.0). […] […] A control sample contained no antioxidant but instead, 95% ethanol (2 ml).

[7] = Stabilization of ascorbic acid (50% ethanol, 60° C., 24 hours, HPLC); settings: 10 mg/ml ascorbic acid, after 60° C.
Procedure: The experiment was repeated with the addition of 0.035 mg or 0.07 mg sodium rosmarinate.

| Solubility (Solubility) | Compound | Efficiency of 10 μg [4] | Toxicity [5] | further results |
| --- | --- | --- | --- | --- |
| lipid | CC(C)(C)c1cc(O)ccc1O [TBHQ, tertiary-butylhydroxyquinone] | 432 h | yes | – |
| water | Cc1c(C)c2c(c(C)c1O)CCC(C)(C(=O)O)O2 (stereo not drawn) [Trolox] | 650 h | no | – |
| water | O=C(/C=C/c1ccc(O)c(O)c1)O[C@H](Cc1ccc(O)c(O)c1)C(=O)O [sodium rosmarinate] | 1413 h | no | Days until oxidation ([2]; concentration 0.005% (as 0.2% of the concentrate)): 7 days; Days until oxidation ([2]; concentration 0.013% (as 0.5% of the concentrate)): 8 days; solubility in acetone (Solubility): virtually acetone-insoluble |
| lipid | Vitamin E | 444 h | no | Days until oxidation ([1]; antioxidant 0.1%): 1 days; Days until oxidation ([2]; concentration 0.06%): 4 days; Hours until oxidation ([3]; antioxidant 0.1%): 9.58 h |

The remaining lines, values behind:

| Compound | Solubility (Solubility) | Efficiency of 10 μg [4] | Toxicity [5] | further results |
| --- | --- | --- | --- | --- |
| COc1ccc(O)c(C(C)(C)C)c1 [BHA, butylated hydroxyanisole] | – | – | – | Days until oxidation ([1]; antioxidant 0.02%): 2 days; Days until oxidation ([2]; concentration 0.02%): 4 days; Hours until oxidation ([3]; antioxidant 0.02%): 9.54 h |
| Cc1cc(C(C)(C)C)c(O)c(C(C)(C)C)c1 [BHT, butylated hydroxytoluene] | lipid | 814 h | yes | – |
| CCCOC(=O)c1cc(O)c(O)c(O)c1 [PG, propyl gallate] | lipid | 500 h | yes | – |
| O=C1O[C@H]([C@@H](O)CO)C(O)=C1O [Vitamin C, ascorbic acid] | – | – | – | Days until oxidation ([1]; antioxidant 0.1%): 1 days; protection of β-carotene [6]: little protection; Hours until oxidation ([3]; antioxidant 0.1%): 25.20 h |
| O=C(/C=C/c1ccc(O)c(O)c1)OC(Cc1ccc(O)c(O)c1)C(=O)O (stereo not drawn) [rosmarinic acid] | – | – | – | % ascorbic acid ([7]; +0.035 mg additive): 68%; % ascorbic acid ([7]; +0.07 mg additive): 90%; solubility in acetone (Solubility): acetone-soluble |
